In US6303625A, “Triazolopyridines for the treatment of thrombosis disorders” (Ortho-McNeil Pharmaceutical, Inc., priority 1999, dated 2001):
No end group written: not given here.

Experiments:
[1] = system: ADP-induced ex vivo platelet aggregation; assay: Ex vivo dog study: duration of >50% inhibition of ADP-induced ex vivo platelet aggregation; assay type: in vivo; settings: for Oral Dosing Duration (of >50% inhibition of ADP-induced ex vivo platelet aggregation): 1 mpk
Description: Adult mongrel dogs (8-13 kg) were anesthetized with sodium pentobarbital (35 mg/kg, i.v.) and artificially respired. Arterial blood pressure and heart rate were measured using a Millar catheter-tip pressure transducer inserted in a femoral artery. Another Millar transducer was placed in the left ventricle (LV) via a carotid artery to measure LV end diastolic pressure and indices of myocardial contractility. A lead II electrocardiogram was recorded from limb electrodes. Catheters were placed in a femoral artery and vein to sample blood and infuse drugs, respectively. Responses were continuously monitored using a Modular Instruments data acquisition system.
Arterial blood samples (5-9 ml) were withdrawn into tubes containing 3.8% sodium citrate to prepare platelet rich plasma (PRP) and to determine effects on coagulation parameters: prothrombin time (PT) and activated partial thromboplastin time (APTT). Separate blood samples (1.5 ml) were withdrawn in EDTA to determine hematocrit and cell counts (platelets, RBC's and white cells). Template bleeding times were obtained from the buccal surface using a symplate incision devise and Whatman filter paper.
Aggregation of PRP was performed using a BioData aggregometer. Aggregation of whole blood used a Chronolog impedance aggregometer. PT and APTT were determined on either a BioData or ACL 3000+ coagulation analyzer. Cells were counted with a Sysmex K-1000.
Compounds were solubilized in a small volume of dimethylformamide (DMF) and diluted with saline to a final concentration of 10% DMF. Compounds were administered by the intravenous route with a Harvard infusion pump. Doses was administered over a 15 min interval at a constant rate of 0.33 ml/min. Data were obtained after each dose and in 30 min intervals following the end of drug administration. Oral doses were administered as aqueous solutions via syringe.

GPIIb/IIIa [2] = target: T1, GPIIb/IIIa (Homo sapiens, UniProt P05106+P08514); assay: In vitro solid phase purified glycoprotein IIb/IIIa binding assay (fibrinogen binding); settings: for inhibition at 50 µM: read-out: Fibrinogen Binding % Inh. (50 μM)
Description: In Vito Solid Phase Purified Glycoprotein IIB/IIA Binding Assay
The plate was covered and incubated overnight at 4° C. The GPIIb/IIa solution was discarded and 150 μl of 5% BSA was added and incubated at RT for 1-3 h. The plate was washed extensively with modified Tyrodes buffer. Biotinylated fibrinogen (25 μl/well) at 2×final concentration was added to the wells that contain the test compounds (25 μl/well). The plate was covered and incubated at RT for 2-4 h. Twenty minutes prior to incubation completion, one drop of Reagent A (Vecta Stain ABC Horse Radish Peroxidase kit, Vector Laboratories, Inc.) and one drop Reagent B were added with mixing to 5 mL modified Tyrodes buffer mix and let stand. The ligand solution was discarded and the plate washed (5×200 μl/well) with modified Tyrodes buffer. Vecta Stain HRP-Biotin-Avidin reagent (50 μl/well, as prepared above) was added and incubated at RT for 15 min. The Vecta Stain solution was discarded and the wells washed (5×200 μl/well) with modified Tyrodes buffer. Developing buffer (10 mL of 50 mM citrate/phosphate buffer @ pH 5.3, 6 mg o-phenylenediamine, 6 μl 30% H2 O2; 50 μl/well) was added and incubated at RT for 3-5 min, and then 2N H2 SO4 (50 μl/well) was added. The absorbance was read at 490 nm.

gel-filtered platelets = assay: In vitro inhibition of thrombin-induced gel-filtered platelet aggregation; assay type: cell-based; settings: Homo sapiens; for inhibition at 50 µM: read-out: Platelet Aggregation % Inh. (50 μM)
Description: In Vitro Inhibition of Thrombin-Induced Gel-Filtered Platelet Aggression Assay
The percentage of platelet aggregation is calculated as an increase in light transmission of compound-treated platelet concentrate vs. control-treated platelet concentrate. Human blood was obtained from drug free, normal donors into tubes containing […] sodium citrate. Platelet rich plasma (PRP) was collected by centrifugation of whole blood at 200×g for 10 min at 25° C. The PRP (5 mL) was gel filtered through Sepharose 2B (bed volume 50 mL), and the platelet count was adjusted to 2×10^7 platelets per sample. The following constituents were added to a siliconized cuvette: concentrated platelet filtrate and Tyrode's buffer (0.14M NaCl, 0.0027M KCl, 0.012M NaHCO3,0.76 mM Na2 HPO4, 0.0055M glucose, 2 mg/mL BSA and 5.0 mM HEPES @ pH 7.4) in an amount equal to 350 μl, 50 μl of 20 mM calcium and 50 μl of the test compound. Aggregation was monitored in a BIODATA aggregometer for the 3 min following the addition of agonist (thrombin 50 μl of 1 unit/mL).

[3] = system: in vitro thrombin-induced platelet aggregation; settings: L. Alig, J. Med. Chem. 1992, 35, 4393; read-out: IC50 against in vitro thrombin-induced platelet aggregation; cited from earlier work
GPIIb/IIIa [4] = target: T1, GPIIb/IIIa; settings: background statement; cited from earlier work

| Compound | Oral Dosing Duration (of >50% inhibition of ADP-induced ex vivo platelet aggregation) [1] [min] | IC50 (GPIIb/IIIa [2]) [nM] | inhibition at 50 µM (GPIIb/IIIa [2]) [%] | IC50 (gel-filtered platelets) [nM] | inhibition at 50 µM (gel-filtered platelets) [%] | Intravenous Dosing Duration (of >50% inhibition of ADP-induced ex vivo platelet aggregation) ([1]; intravenous, 0.1 mpk) [min] | IC50 [3] [nM] | inhibition of fibrinogen binding to GPIIb/IIIa (GPIIb/IIIa [4]) |
| --- | --- | --- | --- | --- | --- | --- | --- | --- |
| CC1(C(=O)NC[C@H](NC(=O)OCc2ccccc2)C(=O)O)CCCn2c(CCC3CCNCC3)nnc21 (stereo partly drawn) [Compound 8, β-[[[5,6,7,8-Tetrahydro-8-methyl-3-[2-(4-piperidinyl)ethyl]-1,2,4-triazolo[4,3-a]pyridin-8-yl]carbonyl]amino]-αS-benzyloxycarbonylamino-protanoic acid] | < 30 | 18.1 | 100 | 2100 | 100 | – | – | – |
| O=C(O)C[C@H](NC(=O)C1CCCn2c(/C=C/C3CCNCC3)nnc21)c1cccnc1 (stereo partly drawn) [Compound 12, β-[[[5,6,7,8-Tetrahydro-3-[2-(4-piperidinyl)E-ethylene]-1,2,4-triazolo[4,3-a]pyridin-8-yl]carbonyl]amino]-βS-3-pyridylpropanoic acid] | 360 | 0.14 | 100 | 30 | 100 | 150 | – | – |
| CN(CC(=O)c1ccc(OCC(=O)O)c(OCC(=O)O)c1)C(=O)c1ccc(C(=N)N)cc1 [Ro-438857] | – | – | – | – | – | – | 94 | – |
| Arg-Gly-Asp | – | – | – | – | – | – | – | shown to inhibit fibrinogen binding to GPIIb/IIIa |
| HHLGGAKQAGDV [gamma-chain peptide region of fibrinogen (γ400-411)] | – | – | – | – | – | – | – | shown to inhibit fibrinogen binding to GPIIb/IIIa |
